Results published in ChEMBL document CHEMBL4483862, “Open-source discovery of chemical leads for next-generation chemoprotective antimalarials” (2018).

Tested on: Plasmodium berghei
Assay: Luciferase/luciferin-expressing antifolate-resistant parasites were used to infect a culture of HepG2 cells that were pre-incubated with compounds. Infected hepatocytes emit light due to the luciferase reaction. Assay results are presented as the percent inhibition of light emission compared to control. […]
Format: functional
Details: sporozoite; for IC90: read-out: LUCIFERASE INFECTION ASSAY - IC90
[1] = read-out: LUCIFERASE INFECTION ASSAY - IC50

SMILES | IC90 [µM] | IC50 [1] [µM] | further results
CN1/C(=C\C=N\NC(=O)c2ccccc2NS(=O)(=O)c2cccs2)C(C)(C)c2ccccc21 | 1.2 |  | IC50 (HEPG2TOX_HILL_SLOPE 16.9, HEPG2TOX_R_SQUARED 0.641, PBLUC_HILL_SLOPE 12.4, PBLUC_R_SQUARED 0.659, read-out: LUCIFERASE INFECTION ASSAY - IC50): 1.01 µM
COc1cc(OC)c(C2CCN(C(=O)c3nn(-c4ccc(F)cc4)c4c3CCCC4)CC2)c(OC)c1 | > 10 |  | IC50 (FFLUC_HILL_SLOPE 11.8, FFLUC_R_SQUARED 0.584, PBLUC_HILL_SLOPE 10.3, PBLUC_R_SQUARED 0.0293, read-out: LUCIFERASE INFECTION ASSAY - IC50): > 10 µM
Clc1ccccc1CN(Cc1nc2ccccc2[nH]1)Cc1nc2ccccc2[nH]1 | 4.32 |  | IC50 (FFLUC_HILL_SLOPE 12.2, FFLUC_R_SQUARED 0.134, HEPG2TOX_HILL_SLOPE 11.4, HEPG2TOX_R_SQUARED 0.932, PBLUC_HILL_SLOPE 13.3, PBLUC_R_SQUARED 0.326, read-out: LUCIFERASE INFECTION ASSAY - IC50): 3.67 µM
CCn1c(C(=O)OC)c(NC(=O)C2CCOC2)c2cc(NCC(C)c3ccccc3)cnc21 (stereo not drawn) | > 7.32 |  | IC50 (PBLUC_HILL_SLOPE 1.36, PBLUC_R_SQUARED 0.443, read-out: LUCIFERASE INFECTION ASSAY - IC50): 5.53 µM
Cc1cc(NC(=O)CCc2c(-c3ccc(F)cc3)[nH]c3ccc(F)cc23)no1 | > 10 | > 10 | 
N#C/C(=N\Nc1ccc(Cl)cc1)C(=O)c1ccsc1 | > 11.4 | > 11.4 | 
CCOC(=O)c1cc(Sc2ccccc2NC(=O)Nc2ccc(C)cc2)cc(C(=O)OCC)n1 | > 6.88 | > 6.88 | 
COc1ccc(Cn2nc(-c3ccccc3)cc2-c2ccccc2O)cc1 | 1.33 |  | IC50 (HEPG2TOX_HILL_SLOPE 8.58, HEPG2TOX_R_SQUARED 0.567, PBLUC_HILL_SLOPE 13.6, PBLUC_R_SQUARED 0.554, read-out: LUCIFERASE INFECTION ASSAY - IC50): 1.13 µM
CCCOc1c(Cl)cc(C(=O)N2CCN(c3cccc(C)c3C)CC2)cc1OC | > 10 |  | IC50 (HEPG2TOX_HILL_SLOPE 9.26, HEPG2TOX_R_SQUARED 0.489, PBLUC_HILL_SLOPE 10.9, 0.598, PBLUC_R_SQUARED 0.349, 0.728, read-out: LUCIFERASE INFECTION ASSAY - IC50): 3.13 µM
CCOc1ccc2nc3cc(N)ccc3c(N)c2c1 [ETHACRIDINE] | > 9.61 |  | IC50 (HEPG2TOX_HILL_SLOPE 3.77, HEPG2TOX_R_SQUARED 0.987, read-out: LUCIFERASE INFECTION ASSAY - IC50): > 9.61 µM
COC(=O)c1ccccc1SCC(C)=O | > 14.7 |  | IC50 (FFLUC_HILL_SLOPE 5.95, FFLUC_R_SQUARED 0.0707, PBLUC_HILL_SLOPE 4.71, PBLUC_R_SQUARED 0.0859, read-out: LUCIFERASE INFECTION ASSAY - IC50): 14 µM
Cc1ccc(O)c(C(=O)c2cnc3cc4c(cc3c2)OCCO4)c1 | 0.81 |  | IC50 (HEPG2TOX_HILL_SLOPE 0.914, HEPG2TOX_R_SQUARED 0.945, PBLUC_HILL_SLOPE 1.42, PBLUC_R_SQUARED 0.804, read-out: LUCIFERASE INFECTION ASSAY - IC50): 0.172 µM
CCOc1ccc(-c2nnc(SCC(=O)Nc3ccccc3C(=O)NCc3ccccc3)o2)cc1 | > 10 | 4.44 | 
Cc1ccc(S(=O)(=O)Nc2ccc(Nc3nccn4c(-c5ccccc5N(C)C)cnc34)cc2)cc1 | > 6.62 |  | IC50 (PBLUC_HILL_SLOPE 3.26, PBLUC_R_SQUARED 0.262, read-out: LUCIFERASE INFECTION ASSAY - IC50): 3.47 µM
O=C(NNC(=S)Nc1ccc(Cl)c(Cl)c1)c1cccnc1Oc1ccccc1 | > 7.62 | > 7.62 | 
Cc1[nH]c(=O)c(C#N)cc1C(=O)CSc1ccc(C(C)(C)C)cc1 | > 9.69 | > 9.69 | 
Cc1cccc(CNc2nc3cnc(-c4ccccc4)cc3n2C)c1 | > 10 | > 10 | 
COc1ccc(-c2csc3ncnc(NCCC(C)C)c23)cc1 | > 10 | > 10 | 
CCCCOc1ccc(CN2CCN(CC(=O)NC)CC2)cc1OCC | > 10 | > 10 | 
Cc1sc(NC(=O)Cc2coc3cc4c(cc23)CCC4)nc1-c1ccc(Cl)cc1 | > 10 | > 10 | 
Cc1ccc(N(CCC#N)C(=O)COC(=O)c2c3c(nc4ccccc24)/C(=C/c2c(F)cccc2Cl)CC3)cc1 | > 10 | > 10 | 
COc1ccc(-c2csc3ncnc(Sc4nnnn4CC4CCCO4)c23)cc1 (stereo not drawn) | > 10 |  | IC50 (HEPG2TOX_HILL_SLOPE 3.82, HEPG2TOX_R_SQUARED 0.683, PBLUC_HILL_SLOPE 2.52, PBLUC_R_SQUARED 0.576, read-out: LUCIFERASE INFECTION ASSAY - IC50): 6.48 µM

SMILES | IC90 [µM] | IC50 [1] [µM] | further results
Oc1cc(C(F)(F)F)nc2c(C(F)(F)F)cccc12 | 5.16 |  | IC50 (FFLUC_HILL_SLOPE 0.264, FFLUC_R_SQUARED 0.18, PBLUC_HILL_SLOPE 9.49, PBLUC_R_SQUARED 0.416, read-out: LUCIFERASE INFECTION ASSAY - IC50): 4.09 µM
COc1ccccc1-c1cc(NC(C)=O)c2ncc(-c3cc(OC)c(OC)c(OC)c3)n2c1 | 2.96 |  | IC50 (HEPG2TOX_HILL_SLOPE 2.18, HEPG2TOX_R_SQUARED 0.547, PBLUC_HILL_SLOPE 12.3, PBLUC_R_SQUARED 0.226, read-out: LUCIFERASE INFECTION ASSAY - IC50): 2.47 µM
CCCCNC(=O)c1c(NC(=O)c2ccccc2C(F)(F)F)nc2ccccn12 | 8.11 |  | IC50 (HEPG2TOX_HILL_SLOPE 6.6, HEPG2TOX_R_SQUARED 0.306, PBLUC_HILL_SLOPE 21.5, PBLUC_R_SQUARED 0.838, read-out: LUCIFERASE INFECTION ASSAY - IC50): 7.33 µM
C/C(=N\NC(=O)c1ccc(COc2c(Br)cc(C)cc2Br)cc1)c1ccc(O)cc1O | 1.28 | 1.12 | 
CCNc1cc(C(=O)Nc2ccccc2)ncn1 | > 13.6 | 0.963 | 
CCOC(=O)c1c(NC(=O)CSc2ncnc3scc(-c4ccc(OC)cc4)c23)sc2c1CCCC2 | > 10 |  | IC50 (HEPG2TOX_HILL_SLOPE 1.83, HEPG2TOX_R_SQUARED 0.223, read-out: LUCIFERASE INFECTION ASSAY - IC50): > 10 µM
Cc1ccccc1OCC(O)CN(CC(C)C)CC(C)C (stereo not drawn) | > 10 |  | IC50 (PBLUC_HILL_SLOPE 6.96, PBLUC_R_SQUARED 0.782, read-out: LUCIFERASE INFECTION ASSAY - IC50): 8.86 µM
CN(C)CCNC(=O)c1ccc(-c2cn3c(-c4cccc(OC(F)(F)F)c4)cnc3cn2)cc1 | > 7.03 |  | IC50 (PBLUC_HILL_SLOPE 3.61, PBLUC_R_SQUARED 0.27, read-out: LUCIFERASE INFECTION ASSAY - IC50): 5.86 µM
CCCN1CCc2nc(Nc3ccc(OCc4ccccc4)cc3)ncc2C1 | > 8.81 | > 8.81 | 
O=C(CCC1CCCC1)N1CCC(c2nnc3n2CCC3)CC1 | > 10 |  | IC50 (HEPG2TOX_HILL_SLOPE 0.129, HEPG2TOX_R_SQUARED 0.379, read-out: LUCIFERASE INFECTION ASSAY - IC50): > 10 µM
CC(=O)c1csc(NC(=O)c2ccc(CSc3ccccc3)o2)n1 | > 10 | > 10 | 
COc1cc(CNC(=O)Nc2nc3ccccc3s2)cc(OC)c1OC | > 10 |  | IC50 (HEPG2TOX_HILL_SLOPE 1.53, HEPG2TOX_R_SQUARED 0.847, PBLUC_HILL_SLOPE 0.688, PBLUC_R_SQUARED 0.648, read-out: LUCIFERASE INFECTION ASSAY - IC50): 0.692 µM
CC1CCc2c(sc3nc(CN4CCOCC4)nc(Oc4ccc(Cl)c5cccnc45)c23)C1 (stereo not drawn) | > 10 | > 10 | 
c1ccc(Oc2ccc(-c3cnc4cnc(-c5cccnc5)cn34)cc2)cc1 | 6.96 | 3 | 
Clc1cccc(CNc2nnnn2-c2ccccc2)c1 | > 10 |  | IC50 (PBLUC_HILL_SLOPE 2.12, PBLUC_R_SQUARED 0.274, read-out: LUCIFERASE INFECTION ASSAY - IC50): 8.09 µM
Cc1cc(C(=O)CN2C(=O)NC(C)(c3ccc(C(C)(C)C)cc3)C2=O)c(C)n1C (stereo not drawn) | > 10 | > 10 | 
O=C(Nc1nc(-c2c[nH]c3ccccc23)cs1)C1CCN(S(=O)(=O)/C=C/c2ccccc2)CC1 | > 10 |  | IC50 (FFLUC_HILL_SLOPE 3.31, FFLUC_R_SQUARED 0.738, HEPG2TOX_HILL_SLOPE 1.04, HEPG2TOX_R_SQUARED 0.854, PBLUC_HILL_SLOPE 3.38, PBLUC_R_SQUARED 0.26, read-out: LUCIFERASE INFECTION ASSAY - IC50): 5.31 µM
Cn1c(N)c(C(=O)COC(=O)c2cc(-c3ccccc3)nc3ccc(Br)cc23)c(=O)n(C)c1=O | > 10 | > 10 | 
Cc1nnnn1/C(=C\c1ccccc1)C(=O)N1CCCC1c1nc2ccccc2s1 (stereo not drawn) | > 10 |  | IC50 (HEPG2TOX_HILL_SLOPE 10.1, HEPG2TOX_R_SQUARED 0.585, PBLUC_HILL_SLOPE 18.2, PBLUC_R_SQUARED 0.211, read-out: LUCIFERASE INFECTION ASSAY - IC50): 9.46 µM
CCOC(=O)c1c(-c2cccs2)csc1NC(=O)c1c(S)n(-c2ccccc2C)c2ccc(C)c[n+]12 | > 10 |  | IC50 (FFLUC_HILL_SLOPE 11.9, FFLUC_R_SQUARED 0.481, read-out: LUCIFERASE INFECTION ASSAY - IC50): > 10 µM
N#CC1C(=N)Oc2c3c(c4ccccc4c2C1c1ccc(Cl)cc1)C(c1ccc(Cl)cc1)C(C#N)C(=N)O3 (stereo not drawn) | > 6.14 |  | IC50 (FFLUC_HILL_SLOPE 2.7, FFLUC_R_SQUARED 0.81, HEPG2TOX_HILL_SLOPE 15, HEPG2TOX_R_SQUARED 0.458, PBLUC_HILL_SLOPE 19.3, PBLUC_R_SQUARED 0.191, read-out: LUCIFERASE INFECTION ASSAY - IC50): 5.72 µM
Nc1c(NC2CCCCC2)cc(NCCO)c2c1C(=O)c1ccccc1C2=O | > 8.7 |  | IC50 (PBLUC_HILL_SLOPE 3.41, PBLUC_R_SQUARED 0.438, read-out: LUCIFERASE INFECTION ASSAY - IC50): > 8.7 µM
